{"source": "patent US11998008B2", "about": "“Pesticides and methods of controlling pests” (The State of Israel, Ministry of Agriculture & Rural …, priority 2017, dated 2024)", "key": {"[1]": {"test_system": "seeds of corn, cotton, and peanut", "test": "Phytotoxicity: seed germination in treated sandy soil in pots", "type": "in vivo", "details": "soil treated with 54 ppm, nine days", "experimental": "Sandy soil from a plot that was treated with 54 ppm of trans-2-octenal was removed to small pots in which either seeds of corn, cotton, and peanut were sown (FIGS. 16A-16C) or tomato seedlings were planted therein (FIG. 16E)."}, "Tomato plants": {"test_system": "Tomato plants", "test": "Phytotoxicity on tomato plants in soil, compound on perlite particles", "type": "in vivo", "details": "one day after treatment", "description": "In exemplary procedures, the phytotixicity of trans-2-octenal and 2-cyclopenten-1-one was examined in triplicates for each concentration: 250, 1,000, 4,000, and 20,000 ppm compared to control."}, "test fungi": {"test_system": "test fungi", "test": "Fungicidal activity assay on PDA, summaries over the test fungi", "type": "cell-based", "details": "over the fungi tested"}, "tomato strain Abigail": {"test_system": "tomato strain Abigail", "test": "Field phytotoxicity in loam soil, seedlings planted one day after application", "type": "in vivo", "details": "emulsion, viable seedlings counted eleven days after planting"}, "[2]": {"test_system": "F. oxysporum f. sp. radicis-cucumerium", "test": "Fungicidal activity assay on PDA in sealed Petri dish (growth inhibition and mortality)", "type": "cell-based, Fusarium oxysporum f. sp. radicis-cucumerinum", "details": "Fusarium oxysporum, NA + number = still viable in the highest concentration tested (given as >), read-out: M - Mortality, minimal concentration that killed the fungus"}, "B. cinerea": {"test_system": "B. cinerea", "test": "Fungicidal activity assay on PDA in sealed Petri dish (growth inhibition and mortality)", "type": "cell-based, Botrytis cinerea", "details": "Botrytis cinerea, NA + number = still viable in the highest concentration tested (given as >), read-out: M - Mortality, minimal concentration that killed the fungus", "experimental": "(§1) In exemplary procedures, the fungicidial activity of the compounds listed in Table 2 were examined by activity assays as follow: Petri dishes, 90 mm in diameter, with air volume of 80 mL, contained 10-12 mL of growth medium comprising potato dextrose agar (PDA) (Acumedia, Lansing, Michigan, USA) amended with tetracycline at 12 μg/mL. Each compound was placed on a disconnected cover from an Eppendorf tube that was located in the middle of the Petri dish and a hyphae-containing plug of each test fungus was added to the culture plate. In exemplary procedures, the tested compounds trans-2-heptenal, trans-2-octenal were tested in comparison with octanal, trans-2-octen-1-ol, methyl trans-2-octenoate, trans-3-octen-2-one and 3-pentenenitrile. In addition, cyclic ketones as 2-cyclopenten-1-one, 2-cyclohexen-1-one and α-tetralone were also examined. Then, the culture plate was sealed with parafilm and incubated at room-temperature for 2 days, after which the growth of the test fungi in those dishes was compared with those in the test compound-free control dishes. At the end of the assay, the viability of each test fungus was evaluated by transferring inoculum plugs to fresh PDA plates and observing the growth that developed within the next 2 days. The test fungi used in this study included but were not limited to Alternaria alternata, Botrytis cinerea, Sclerotinia rolfsii, Penicillium digitatum, Fusarium oxysporum f. sp. radicis-cucumerinum and Rhizoctonia solani."}, "sclerotia of S. rolfsii": {"test_system": "sclerotia of S. rolfsii", "test": "Open field experiment in sandy soil", "type": "in vivo, Sclerotium rolfsii", "details": "emulsion, 54 ppm active compound, 6 days", "experimental": "In this experiment, an emulsions of trans-2-octenal (25% active compound) such as those described in Example 9 were used. The soil was inoculated with chlamydospores of Forl and sclerotia of S. rolfsii. Five gram of soil, highly inoculated with chlamydospores were wrapped in nylon tights and buried in the field at depths of 10, 30, and 50 cm. Tea bags containing 50 S. rolfsii sclerotia were prepared as described above and buried similarly. After 6 days, trans-2-octenal emulsion, at concentration of 54 ppm (active compound) was applied using the irrigation system. The same conditions were applied to a control plot except that the plot was irrigated with tap water without the compound. The plots were left open during the time of the experiment. After 6 days, the pathogens were removed from the soil and their viability was examined using PDA+tet culture plates. […] As shown in these figures, elimination of both phytopathogenic fungi occurred at the lowest depth of 10 cm."}, "[3]": {"test_system": "Sclerotium rolfsii sclerotia", "test": "Effect on Sclerotium rolfsii sclerotia buried in buckets", "type": "in vivo", "experimental": "The activity of trans-2-octenal was examined against phytopathogenic fungi and weeds. The experiment was performed in large buckets (110 L), which bottoms were removed, and therefore the loam in the bucket was continuous with the ground. The soil was inoculated one day prior the application of the compound. Soil inoculation was performed as follows: spores of Fusarium oxysporum […]-cucumerinum (FORC) were collected from culture plates and 25 mL of spore suspension at concentration of 9×10^5 was mixed with 10 L of tap water and then poured on the soil of each bucket. […] Half of the buckets were sealed with nylon while the other half remained open. Five days later, soil samples from three different depths (10, 20, and 30 cm) were taken from each bucket for fungal isolation and determination of fungal survival. […] After 3 days, the number of colonies was counted. […] Similar experiment was carried out with Sclerotium rolfsii as the phytopathogen fungus. The experiment was performed as above with the following modifications: 50 sclerotia of S. rolfsii were inserted into paper tea-bags and warped with nylon tights. Each bucket contained 9 tea-bags, 3 for each depth of 10, 20, and 30 cm. After burying the tea bags, the soil was watered with 10 L of tap water. […] Hyphal growth was detected after 2 days incubation at 25° C."}, "A. alternata": {"test_system": "A. alternata", "test": "Fungicidal activity assay on PDA in sealed Petri dish (growth inhibition and mortality)", "type": "cell-based, Alternaria alternata", "details": "Alternaria alternata, NA + number = still viable in the highest concentration tested (given as >), read-out: M - Mortality, minimal concentration that killed the fungus", "experimental": "as §1"}, "P. digitatum": {"test_system": "P. digitatum", "test": "Fungicidal activity assay on PDA in sealed Petri dish (growth inhibition and mortality)", "type": "cell-based, Penicillium digitatum", "details": "Penicillium digitatum, NA + number = still viable in the highest concentration tested (given as >), read-out: M - Mortality, minimal concentration that killed the fungus", "experimental": "as §1"}}, "data": [{"smiles": "CCCCC/C=C/C=O", "note": "[trans-2-octenal]", "values": [{"measurement": "number of seeds germinated in treated versus untreated soil", "setting": "[1]", "value": "did not differ significantly"}, {"measurement": "phytotoxicity", "setting": "Tomato plants; 250 ppm", "value": "No phytotoxicity"}, {"measurement": "phytotoxicity", "setting": "Tomato plants; 1,000 ppm", "value": "No phytotoxicity"}, {"measurement": "phytotoxicity", "setting": "Tomato plants; 4,000 ppm", "value": "No phytotoxicity"}, {"measurement": "phytotoxicity", "setting": "Tomato plants; 20,000 ppm", "value": "No phytotoxicity"}, {"measurement": "concentrations that completely inhibited the fungi growth and killed the fungi", "setting": "test fungi", "value": "6.25-50 ppm"}, {"measurement": "concentration at which significant phytotoxic effect occurred", "setting": "tomato strain Abigail", "value": 400, "unit": "ppm"}, {"measurement": "MFC", "setting": "[2]", "value": 6.25, "unit": "µg/mL"}, {"measurement": "MFC", "setting": "B. cinerea", "value": 50, "unit": "µg/mL"}, {"measurement": "viability of S. rolfsii sclerotia", "setting": "sclerotia of S. rolfsii; 30 and 50 cm depth", "value": "No elimination"}, {"measurement": "viability of S. rolfsii sclerotia", "setting": "sclerotia of S. rolfsii; depth 10 cm, open plot", "value": "elimination"}, {"measurement": "viability of sclerotia", "setting": "[3]; depth 10 cm, open and close conditions, 125-250 ppm", "value": "reduced significantly"}, {"measurement": "effect on viability of sclerotia", "setting": "[3]; depth 30 cm, close conditions only, 250 ppm", "value": "significant effect"}, {"measurement": "MFC", "setting": "A. alternata", "value": 12.5, "unit": "µg/mL"}, {"measurement": "MFC", "setting": "P. digitatum", "value": 12.5, "unit": "µg/mL"}]}]}
